From article PMC12624727, “Benzodeazaoxaflavin Sirtuin Inhibitors Inhibit Schistosoma mansoni Sirt2 and Cause Phenotypic Changes and Lethality in Schistosomula and Adult Worm Stages” (ACS Infectious Diseases, 2025)

How the values were obtained:
SmSirt2 = SmSirt2 (Schistosoma mansoni, UniProt T1VXA1); test: In vitro SmSirt2 inhibition assay, homogeneous fluorescence-based, ZMAL substrate; format: biochemical
Experimental: We first improved the synthetic method to obtain most of the BDFs analogues 1–12 (Figure ), and we tested them against recombinant SmSirt2 using a homogeneous, fluorescent-based in vitro assay with (Z)-(Ac)-Lys-7-amino-4-methylcoumarin (ZMAL) as the substrate.
The BDF4 compounds 1–12 were tested for their inhibitory activity against SmSirt2 using a fluorescence-based assay with ZMAL as the substrate. Their activity against hSirt2 has been previously reported. ,
For the screening of compounds 1–12, a homogeneous fluorescence-based assay previously described by some of us was used to determine SmSirt2 activity.

[1] = test system: S. mansoni newly transformed schistosomula (NTS), Liberian strain; test: NTS (Liberian strain) in vitro viability assay; format: cell-based, Schistosoma mansoni; conditions: for percentage of reduction of NTS viability, 72 h: SD in brackets; for IC50: 72 h, Liberian strain
[2] = test system: adult S. mansoni (Liberian strain) worm pairs; test: Adult worm (Liberian strain) in vitro viability assay; format: cell-based, Schistosoma mansoni; conditions: for adult worms' percentage of viability reduction, 72 h: SD in brackets; for IC50: Schistosoma mansoni, 72 h, Liberian strain
[3] = test system: S. mansoni (Puerto Rican) worm pairs; test: Worm pairing of adult worm pairs (Puerto Rican strain); format: cell-based, Schistosoma mansoni; conditions: % of DMSO control
[4] = test system: S. mansoni (Puerto Rican) worm pairs; test: Egg laying by adult worm pairs (Puerto Rican strain); format: cell-based, Schistosoma mansoni; conditions: % of DMSO control
[5] = test system: histone H3 / H4 acetylation in S. mansoni (Puerto Rican strain) worm pairs; test: Western blot of histone and lysine acetylation in worm extracts; format: cell-based, Schistosoma mansoni; conditions: 10 μM, 48 h; histone-enriched fraction
[6] = test system: adult S. mansoni (Puerto Rican strain) worm pairs; conditions: Puerto Rican strain; for lethality of adult worm pairs: 20 μM, by 72 h
hSirt2 = conditions: ref footnote b (reference number not given); cited from earlier work
[7] = test system: adult S. mansoni (Puerto Rican strain) worm pairs; test: microbe, parasite or virus in culture; conditions: Schistosoma mansoni, 24 h, read-out: mortality in adult worm pairs
[8] = MTT viability assay on BJ fibroblasts; conditions: human
[9] = test system: cytochrome c release in S. mansoni (Puerto Rican strain) worms; test: Western blot of cytosolic cytochrome c in worm extracts; format: cell-based, Schistosoma mansoni; conditions: 25 μM, 48 h (legend of Figure 5)
Experimental: To determine if the Sirt2 inhibitors trigger apoptosis through the cytochrome c pathway, we examined cytochrome c release from mitochondria.
5 Effects of selected Sirt2 inhibitors on cytosolic cytochrome c expression. Representative immunoblots of cytosolic protein fractions extracted from S. mansoni adult worm pairs are shown. The worms were treated with the indicated Sirt2 inhibitors (10 μM) for 48 h. DMSO (vehicle), TSA (1 μM, 24 h), a HDAC pan-inhibitor, and salermide (Sal 25 μM, 48 h), a Sirt1/Sirt2 inhibitor, were used as controls. The α-tubulin signal was used for normalization. Quantitation of cytochrome c relative to the vehicle-treated sample is shown.
Ten pairs of adult parasites were treated with selected Sirt inhibitors for either 24 or 48 h at partially lethal and sublethal concentrations. The concentrations of compounds were chosen based on the viability curve. Positive controls in the experiments included TSA, a pan-HDAC inhibitor, and salermide, a hSirt1/2 inhibitor, while DMSO (vehicle) served as negative control. Parasites were lysed in a 0.5% Triton PBS buffer by strokes, and the lysates were then centrifuged to collect the soluble fractions (cytosol). The insoluble fractions were extracted with 0.25 N HCl at +4 °C for 18 h, followed by neutralization with 1/10 volume of 2 N NaOH. Samples were analyzed using 15% SDS-PAGE and Western blotting. […]

schistosomula = test system: schistosomula; design: method as in not given; conditions: 48 h of treatment, 10–20 μM; ref not given; cited from earlier work
in vitro = conditions: human

Sequence of SmSirt2 (T1VXA1 entry or part of it): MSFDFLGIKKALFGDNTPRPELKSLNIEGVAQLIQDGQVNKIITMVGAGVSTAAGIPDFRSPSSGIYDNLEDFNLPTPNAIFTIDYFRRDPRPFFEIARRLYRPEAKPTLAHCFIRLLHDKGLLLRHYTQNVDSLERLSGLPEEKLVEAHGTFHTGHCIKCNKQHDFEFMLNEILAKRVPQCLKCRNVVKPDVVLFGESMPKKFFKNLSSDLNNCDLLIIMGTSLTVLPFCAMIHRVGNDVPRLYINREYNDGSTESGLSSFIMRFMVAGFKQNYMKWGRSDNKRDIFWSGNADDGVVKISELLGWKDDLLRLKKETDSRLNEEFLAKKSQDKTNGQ

For `O=c1nc2oc3ccc4ccccc4c3cc-2c(=O)n1C1CCCCC1` [Compound 7, 10-Cyclohexyl-9H-benzo[5,6]chromeno[2,3-d]pyrimidine-9,11(10H)-dione], the inhibition at 50 µM (SmSirt2) was 24.6%, the “percentage of reduction of NTS viability, 72 h” value (“percentage of reduction … 72 h” for short) ([1]; 0.1 μM) was 43.8 (2.1) % and the “percentage of reduction … 72 h” value ([1]; 1 μM) was 67.7 (0) %. The “percentage of reduction … 72 h” value ([1]; 10 μM) was 100 (0) %, the “percentage of reduction … 72 h” value ([1]; 20 μM) was 100 (0) % and the IC50 [1] was 0.21 µM. For the same compound, the IC50 ([1]; Schistosoma mansoni) was about 0.2 µM, the “adult worms' percentage of viability reduction, 72 h” value ([2]; 1 μM) was 23.9 (0) % and the “adult worms' percentage of viability reduction, 72 h” value ([2]; 20 μM) was 100 (0) %. The IC50 [2] was 1.24 µM, the “% worm pairing” value ([3]; 1 μM, 24 h, single experiment) was 100% and the “% worm pairing” value ([3]; 1 μM, 48 h, single experiment) was 100%. For the same compound, the “% worm pairing” value ([3]; 1 μM, 72 h, single experiment) was 100%, the “% worm pairing” value ([3]; 10 μM, 24 h, SD in brackets) was 100 (0) % and the “% worm pairing” value ([3]; 10 μM, 48 h, SD in brackets) was 100 (0) %. The “% worm pairing” value ([3]; 10 μM, 72 h, SD in brackets) was 100 (0) %, the “% worm pairing” value ([3]; 20 μM, 24 h, SD in brackets) was 0 (0) % and the “% worm pairing” value ([3]; 20 μM, 48 h, SD in brackets) was 0 (0) %. For the same compound, the “% worm pairing” value ([3]; 20 μM, 72 h, SD in brackets) was 6 (11) %, the “% egg laying” value ([4]; 1 μM, 24 h, single experiment) was 75% and the “% egg laying” value ([4]; 1 μM, 48 h, single experiment) was 66%. For the same compound, the “% egg laying” value ([4]; 1 μM, 72 h, single experiment) was 75%, the “% egg laying” value ([4]; 10 μM, 24 h, SD in brackets) was 32 (4) % and the “% egg laying” value ([4]; 10 μM, 48 h, SD in brackets) was 46 (6) %. For the same compound, the “% egg laying” value ([4]; 10 μM, 72 h, SD in brackets) was 44 (10) %, the “% egg laying” value ([4]; 20 μM, 24 h, SD in brackets) was 14 (12) % and the “% egg laying” value ([4]; 20 μM, 48 h, SD in brackets) was 9 (8) %. For the same compound, the “acetylation of histone H3 (pan-acetylation)” value [5] was “increase in acetylation of histone H3”, the “acetylation of histone H4 (pan-acetylation)” value [5] was “but not histone H4” and the “lethality of adult worm pairs” value [6] was “complete lethality”. The IC50 (hSirt2) was 58.5 ± 2.9 µM, the mortality at 20 µM [7] was 70 to 80% and the IC50 at 72 h [8] was 60 µM.
In the case of `CC(C(=O)Nc1cccc(/N=C/c2c(O)ccc3ccccc23)c1)c1ccccc1` (stereo not shown) [salermide], the “cytosolic cytochrome c level” value [9] is given as “increased levels of cytochrome c”, the “effect on adult worm viability” value ([6]; after 72 h, same conditions) is given as “did not affect adult worm viability” and the “DNA fragmentation in schistosomula (TUNEL assay)” value (schistosomula) is given as “cause DNA fragmentation”.
For `CC(C)=CCC[C@]1(C)C=Cc2c(O)c3c(c(CC=C(C)C)c2O1)O[C@]12C(=C[C@@H]4C[C@H]1C(C)(C)O[C@@]2(C/C=C(/C)C(=O)O)C4=O)C3=O` [GA, gambogic acid], the IC50 at 72 h (in vitro) was 0.34 µM.
With `O=c1nc2oc3ccc4ccccc4c3cc-2c(=O)n1Cc1ccccc1` [Compound 9, 10-Benzyl-9H-benzo[5,6]chromeno[2,3-d]pyrimidine-9,11(10H)-dione] the IC50 (SmSirt2; read-out: IC50 SmSirt2, ZMAL substrate) was 7.3 ± 0.5 µM, the “percentage of reduction … 72 h” value ([1]; 0.1 μM) was 36 (2) % and the “percentage of reduction … 72 h” value ([1]; 1 μM) was 100 (0) %. The “percentage of reduction … 72 h” value ([1]; 10 μM) was 100 (0) %, the “percentage of reduction … 72 h” value ([1]; 20 μM) was 100 (0) % and the IC50 [1] was 0.11 µM. The IC50 ([1]; Schistosoma mansoni) was about 0.1 µM, the “adult worms' percentage of viability reduction, 72 h” value ([2]; 20 μM) was 61.2 (5.6) % and the IC50 [2] was under 1 µM. For the same compound, the “% worm pairing” value ([3]; 1 μM, 24 h, single experiment) was 100%, the “% worm pairing” value ([3]; 1 μM, 48 h, single experiment) was 100% and the “% worm pairing” value ([3]; 1 μM, 72 h, single experiment) was 100%. For the same compound, the “% worm pairing” value ([3]; 10 μM, 24 h, SD in brackets) was 80 (20) %, the “% worm pairing” value ([3]; 10 μM, 48 h, SD in brackets) was 93 (11) % and the “% worm pairing” value ([3]; 10 μM, 72 h, SD in brackets) was 100 (0) %. The “% worm pairing” value ([3]; 20 μM, 24 h, SD in brackets) was 6 (11) %, the “% worm pairing” value ([3]; 20 μM, 48 h, SD in brackets) was 20 (30) % and the “% worm pairing” value ([3]; 20 μM, 72 h, SD in brackets) was 20 (30) %. The “% egg laying” value ([4]; 1 μM, 24 h, single experiment) was 98%, the “% egg laying” value ([4]; 1 μM, 48 h, single experiment) was 98% and the “% egg laying” value ([4]; 1 μM, 72 h, single experiment) was 126%. For the same compound, the “% egg laying” value ([4]; 10 μM, 24 h, SD in brackets) was 72 (74) %, the “% egg laying” value ([4]; 10 μM, 48 h, SD in brackets) was 71 (36) % and the “% egg laying” value ([4]; 10 μM, 72 h, SD in brackets) was 67 (28) %. For the same compound, the “% egg laying” value ([4]; 20 μM, 24 h, SD in brackets) was 11 (7) %, the “% egg laying” value ([4]; 20 μM, 48 h, SD in brackets) was 8 (5) % and the “% egg laying” value ([4]; 20 μM, 72 h, SD in brackets) was 7 (6) %. For the same compound, the “acetylation of histone H3 (pan-acetylation)” value [5] was “increase in acetylation of histone H3”, the “acetylation of histone H4 (pan-acetylation)” value [5] was “but not histone H4” and the “lethality of adult worm pairs” value [6] was “complete lethality”. For the same compound, the IC50 (hSirt2) was 15.9 ± 0.6 µM, the mortality at 20 µM [7] was 70 to 80% and the IC50 at 72 h [8] was 50.6 µM.
